The target in this experiment is T1, P2X7 receptor (Homo sapiens, UniProt Q99572).
T1 construct: stably expressing the full length P2X7 receptor; expressed in transfected cells
T1 sequence (Q99572 1-595): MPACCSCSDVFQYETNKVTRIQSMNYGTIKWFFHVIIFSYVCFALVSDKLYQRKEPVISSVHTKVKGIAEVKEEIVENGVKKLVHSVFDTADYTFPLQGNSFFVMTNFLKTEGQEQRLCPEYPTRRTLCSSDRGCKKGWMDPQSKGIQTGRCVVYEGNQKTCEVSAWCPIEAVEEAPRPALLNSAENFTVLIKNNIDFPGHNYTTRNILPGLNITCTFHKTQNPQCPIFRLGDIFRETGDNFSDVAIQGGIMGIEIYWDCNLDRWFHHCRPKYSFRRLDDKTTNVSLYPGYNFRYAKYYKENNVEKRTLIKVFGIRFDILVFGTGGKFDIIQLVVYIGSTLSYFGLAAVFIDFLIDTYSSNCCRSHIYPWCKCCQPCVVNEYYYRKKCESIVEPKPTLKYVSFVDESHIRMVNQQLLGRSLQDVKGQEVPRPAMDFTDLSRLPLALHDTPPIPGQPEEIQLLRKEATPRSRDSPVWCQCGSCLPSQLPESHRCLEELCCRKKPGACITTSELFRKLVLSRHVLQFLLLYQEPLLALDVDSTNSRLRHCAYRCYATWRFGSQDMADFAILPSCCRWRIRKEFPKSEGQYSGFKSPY
Description: Ca++ flux assay (FLIPR) in P2X7-HEK-293 cell line stably expressing the full length P2X7 receptor, Bz-ATP activation. The experiment is classed as cell-based. As to conditions: P2X7-HEK-293 cells; agonist Bz-ATP; fluorescence as total area over 90 seconds; read-out: P2X7 Ca Flux hu IC50. In a few lines:
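HEK-293 cells stably expressing full-length P2X7 were loaded with Ca++-sensitive dye for 1 h, with compound added during loading. Cells were stimulated with Bz-ATP on FLIPR. Fluorescence was integrated as total area over 90 s, and IC50 was taken as 50% inhibition of the maximal Ca++ response.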
A word on the IC50: it is the concentration at which inhibition is half-maximal. As for `COc1ccccc1C(=O)CSc1nnc2c(=O)n(-c3cccc(Cl)c3C)ccn12` [Compound 108, 7-(3-chloro-2-methylphenyl)-3-(2-(2-methoxyphenyl)-2-oxoethylthio)-[1,2,4]triazolo[4,3-a]pyrazin-8(7H)-one], the IC50 was 507 nM.
The value for `Cc1c(Cl)cccc1-n1ccn2c(SCc3ccccc3CCc3ccccc3)nnc2c1=O` [Compound 44] was 553 nM; that for `Cc1c(Cl)cccc1-n1ccn2c(SCc3ccccc3-c3cccs3)nnc2c1=O` [Compound 40, 7-(3-chloro-2-methylphenyl)-3-(2-(thiophen-2-yl)benzylthio)-[1,2,4]triazolo[4,3-a]pyrazin-8(7H)-one] was 45.8 nM; that for `Cc1c(Cl)cccc1-n1ccn2c(SCc3ccc(C(C)C)cc3)nnc2c1=O` [Compound 104, 7-(3-chloro-2-methylphenyl)-3-(4-isopropylbenzylthio)-[1,2,4]triazolo[4,3-a]pyrazin-8(7H)-one] was 2740 nM.
The value for `Cc1c(Cl)cccc1-n1ccn2c(S(=O)(=O)Cc3ccccc3C(C)(C)C)nnc2c1=O` [Compound 136, 3-(2-tert-butylbenzylsulfonyl)-7-(3-chloro-2-methylphenyl)-[1,2,4]triazolo[4,3-a]pyrazin-8(7H)-one] was 26.9 nM; that for `Cc1c(Cl)cccc1-n1ccn2c(SCc3ccccn3)nnc2c1=O` [Compound 98, 7-(3-chloro-2-methylphenyl)-3-(pyridin-2-ylmethylthio)-[1,2,4]thazolo[4,3-a]pyrazin-8(7H)-one] was 2340 nM; that for `Cc1c(Cl)cccc1-n1ccn2c(SCc3c(Cl)cccc3Cl)nnc2c1=O` [Compound 75, 7-(3-chloro-2-methylphenyl)-3-(2,6-dichlorobenzylthio)-[1,2,4]triazolo[4,3-a]pyrazin-8(7H)-one] was 280 nM.
The same measure for `O=c1c2nnc(S(=O)(=O)Cc3ccccc3Cl)n2ccn1-c1cccc(C(F)(F)F)c1Cl` [Compound 119, 7-(2-chloro-3-(trifluoromethyl)phenyl)-3-(2-chlorobenzylsulfonyl)-[1,2,4]triazolo[4,3-a]pyrazin-8(7H)-one]: 11 nM; for `O=c1c2nnc(SCc3ccccc3)n2ccn1-c1cccc(Cl)c1F` [Compound 82, 3-(benzylthio)-7-(3-chloro-2-fluorophenyl)-[1,2,4]triazolo[4,3-a]pyrazin-8(7H)-one]: 374 nM; for `Cc1c(Cl)cccc1-n1ccn2c(N(C)Cc3ccccc3)nnc2c1=O` [Compound 169, 3-(benzyl(methyl)amino)-7-(3-chloro-2-methylphenyl)-[1,2,4]triazolo[4,3-a]pyrazin-8(7H)-one]: 1590 nM.
In the case of `Cc1c(Cl)cccc1-n1ccn2c(NC(c3ccccc3)c3ccccc3)nnc2c1=O` [Compound 167, 3-(benzhydrylamino)-7-(3-chloro-2-methylphenyl)-[1,2,4]triazolo[4,3-a]pyrazin-8(7H)-one], the IC50 amounted to 1040 nM.
For `Cc1c(Cl)cccc1-n1ccn2c(SCc3cccc(-c4ccccc4)c3)nnc2c1=O` [Compound 46, 3-(biphenyl-3-ylmethylthio)-7-(3-chloro-2-methylphenyl)-[1,2,4]triazolo[4,3-a]pyrazin-8(7H)-one], the IC50 was 3500 nM.
The same measure for `Cc1c(Cl)cccc1-n1ccn2c(SCc3ccccc3Oc3ccccc3)nnc2c1=O` [Compound 30, 7-(3-chloro-2-methylphenyl)-3-(2-phenoxybenzylthio)-[1,2,4]triazolo[4,3-a]pyrazin-8(7H)-one]: 67 nM; for `Cc1c(Cl)cccc1-n1ccn2c(SCc3cccc(F)c3Cl)nnc2c1=O` [Compound 16, 7-(3-chloro-2-methylphenyl)-3-(2-chloro-3-fluorobenzylthio)-[1,2,4]triazolo[4,3-a]pyrazin-8(7H)-one]: 286 nM; for `Cc1c(Cl)cccc1-n1ccn2c(SCc3cccc(C(F)(F)F)c3)nnc2c1=O` [Compound 89, 7-(3-chloro-2-methylphenyl)-3-(3-(trifluoromethyl)benzylthio)-[1,2,4]triazolo[4,3-a]pyrazin-8(7H)-one]: 581 nM.
For `Cc1c(Cl)cccc1-n1ccn2c(SCc3ccc(F)c(F)c3)nnc2c1=O` [Compound 115, 7-(3-chloro-2-methylphenyl)-3-(3,4-difluorobenzylthio)-[1,2,4]triazolo[4,3-a]pyrazin-8(7H)-one], the IC50 stood at 893 nM.
The value for `Cc1c(-n2ccn3c(S(=O)(=O)Cc4ccc(Cl)s4)nnc3c2=O)cccc1C(F)(F)F` [Compound 132, 3-((5-chlorothiophen-2-yl)methylsulfonyl)-7-(2-methyl-3-(trifluoromethyl)phenyl)-[1,2,4]triazolo[4,3-a]pyrazin-8(7H)-one] was 17.9 nM.
The value for `Cc1c(Cl)cccc1-n1ccn2c(S(=O)(=O)Cc3ccccc3-c3cccs3)nnc2c1=O` [Compound 151, 7-(3-chloro-2-methylphenyl)-3-(2-(thiophen-2-yl)benzylsulfonyl)-[1,2,4]triazolo[4,3-a]pyrazin-8(7H)-one] was 50.9 nM; that for `[2H]c1c([2H])c([2H])c(C([2H])([2H])S(=O)(=O)c2nnc3c(=O)n(-c4cccc(Cl)c4C)ccn23)c([2H])c1[2H]` [Compound 140, deuterated-7-(3-chloro-2-methylphenyl)-3-[(phenyl-(d5)methyl-(d2))sulfonyl]-1,2,4-triazolo[4,3-a]pyrazin-8(7H)-one] was 31.8 nM; that for `Cc1c(-n2ccn3c(S(=O)(=O)Cc4ccccc4Cl)nnc3c2=O)cccc1C(F)(F)F` [Compound 121, 3-(2-chlorobenzylsulfonyl)-7-(2-methyl-3-(trifluoromethyl)phenyl)-[1,2,4]triazolo[4,3-a]pyrazin-8(7H)-one] was 11.9 nM.
The same measure for `Cc1cccc(CSc2nnc3c(=O)n(-c4cccc(Cl)c4C)ccn23)c1F` [Compound 55, 7-(3-chloro-2-methylphenyl)-3-(2-fluoro-3-methylbenzylthio)-[1,2,4]triazolo[4,3-a]pyrazin-8(7H)-one]: 432 nM; for `COc1cc(CSc2nnc3c(=O)n(-c4cccc(Cl)c4C)ccn23)cc(OC)c1` [Compound 79, 7-(3-chloro-2-methylphenyl)-3-(3,5-dimethoxybenzylthio)-[1,2,4]triazolo[4,3-a]pyrazin-8(7H)-one]: 1330 nM; for `Cc1c(Cl)cccc1-n1ccn2c(SCc3ccccc3-c3ccco3)nnc2c1=O` [Compound 37, 7-(3-chloro-2-methylphenyl)-3-(2-(furan-2-yl)benzylthio)-[1,2,4]triazolo[4,3-a]pyrazin-8(7H)-one]: 97.4 nM.
Take `Cc1c(Cl)cccc1-n1ccn2c(SCc3ccccc3OC(F)(F)F)nnc2c1=O` [Compound 70, 7-(3-chloro-2-methylphenyl)-3-(2-(trifluoromethoxy)benzylthio)-[1,2,4]triazolo[4,3-a]pyrazin-8(7H)-one]: the IC50 stood at 112 nM.
The same measure for `Cc1cccc(-c2ccccc2CS(=O)(=O)c2nnc3c(=O)n(-c4cccc(C(F)(F)F)c4C)ccn23)c1` [Compound 152]: 51 nM; for `Cc1c(-n2ccn3c(S(=O)(=O)Cc4cccc5c4-c4ccccc4C5)nnc3c2=O)cccc1C(F)(F)F` [Compound 159, 3-((9H-fluoren-4-yl)methylsulfonyl)-7-(2-methyl-3-(trifluoromethyl)phenyl)-[1,2,4]triazolo[4,3-a]pyrazin-8(7H)-one]: 1130 nM; for `Cc1c(Cl)cccc1-n1ccn2c(SCc3ccccc3-c3ccccc3)nnc2c1=O` [Compound 54, 3-(biphenyl-2-ylmethylthio)-7-(3-chloro-2-methylphenyl)-[1,2,4]triazolo[4,3-a]pyrazin-8(7H)-one]: 44 nM.
For `Cc1c(Cl)cccc1-n1ccn2c(S(=O)(=O)Cc3ccccc3Cl)nnc2c1=O` [Compound 134, 7-(3-chloro-2-methylphenyl)-3-(2-chlorobenzylsulfonyl)-[1,2,4]triazolo[4,3-a]pyrazin-8(7H)-one], the IC50 came out at 23.2 nM.
With `Cc1c(Cl)cccc1-n1ccn2c(NCc3ccccc3-c3ccccc3)nnc2c1=O` [Compound 166, 3-(biphenyl-2-ylmethylamino)-7-(3-chloro-2-methylphenyl)-[1,2,4]triazolo[4,3-a]pyrazin-8(7H)-one], the IC50 is 585 nM.
The same measure for `Cc1c(Cl)cccc1-n1ccn2c(SCc3cc(Cl)ccc3F)nnc2c1=O` [Compound 64, 3-(5-chloro-2-fluorobenzylthio)-7-(3-chloro-2-methylphenyl)-[1,2,4]triazolo[4,3-a]pyrazin-8(7H)-one]: 755 nM.
The same measure for `Cc1nc(CSc2nnc3c(=O)n(-c4cccc(Cl)c4C)ccn23)cs1` [Compound 94, 7-(3-chloro-2-methylphenyl)-3((2-methylthiazol-4-yl)methylthio)-[1,2,4]triazolo[4,3-a]pyrazin-8(7H)-one]: 2560 nM.
The same measure for `Cc1c(Cl)cccc1-n1ccn2c([S+]([O-])Cc3cc(Cl)cc(Cl)c3)nnc2c1=O` (centres unmarked) [Compound 162, 7-(3-chloro-2-methylphenyl)-3-(3,5-dichlorobenzylsulfinyl)-[1,2,4]triazolo[4,3-a]pyrazin-8(7H)-one]: 335 nM.

These data come from patent publication US20130196986A1 (priority 2010, published 2013).
